Assay results: patent US6835734B2, “1,3-dioxolanes with antitussive activity” (Dompé S.p.A., priority 2000, dated 2004)

Assays:
[1] = test system: male Dunkin-Hartley Guinea pigs; assay: capsaicin aerosol-induced cough after intravenous administration; format: in vivo, Guinea pig; settings: for recorded cough strokes / inhibition of the response to the tussigenic stimulus: 10 mg/kg intravenous, 0.0045% capsaicin aerosol 5 minutes after administration; for recorded cough strokes: during the 4 minute aerosol; for inhibition of the response to the tussigenic stimulus: strokes recorded during 4 minute aerosol
Protocol: The tests were carried out on male Dunkin-Hartley Guinea pigs (4-6 animals for group), which were subjected to aerosol of a 0.0045% (p/v) capsaicin aqueous solution [Lavezzo A., Pulm. Pharmacol., 5, 143-147, 1992; Gallico L. et al, Br. J. Pharmacol., 112, 795-800. 1994] 5 minutes after intravenous administration of 0.5 ml of a (−)-1,2-cyclohexylidene-3-(4-phenyl-piperazin-1-yl)-propane-1,2-diol fumarate solution (DF 1689A, 10 mg/kg) compared with 0.5 ml of a levodropropizine solution, pH 4.5 (10 mg/kg) and with an equal volume of saline solution (control).

[2] = test system: male Dunkin-Hartley Guinea pigs; assay: cough strokes after aerosol administration of the medicaments; format: in vivo, Guinea pig; settings: aerosol with 1% (w/v) aqueous solution for 10 minutes, compared with saline aerosol controls

| Structure (SMILES) | recorded cough strokes [1] | inhibition of the response to the tussigenic stimulus [1] | inhibitory effect on number of cough strokes [2] | inhibition on the tussigen stimulus induced by capsaicin aerosol ([1]; 15 minutes after the intravenous administration) | inhibition on the tussigen stimulus induced by capsaicin aerosol ([1]; 30 minutes after the intravenous administration) |
| --- | --- | --- | --- | --- | --- |
| OCC(O)CN1CCN(c2ccccc2)CC1 (single isomer, unassigned; (-)) [levodropropizine, (−) 3-(4-phenyl-piperazin-1-yl)-1,2-propanediol, reference compound] | 5.17±0.54 | 43.6% | about 35% | – | – |
| O=C(O)/C=C/C(=O)O.c1ccc(N2CCN(C[C@H]3COC4(CCCCC4)O3)CC2)cc1 [DF 1689A, S(−)-1,2-cyclohexylidene-3-(4-phenyl-piperazin-1-yl)propane-1,2-diol fumarate] | 4.83±0.54 | 47.3% | about 35% | 34.6% | 27.3% |
